According to patent publication US9273011B2, “Substituted pyridazines for the treatment of pain” (INHIBITAXIN LIMITED, priority 2011, dated 2016):

Target: human Autotaxin enzyme (Homo sapiens (Human), UniProt Q13822)
Assay: Autotaxin FS-3 assay
Type: biochemical
Settings: Autotaxin FS3 assay; human Autotaxin enzyme 2 nM; inhibition of FS-3 fluorescence; range and n in brackets
Description: Autotaxin (ATX) converts Lysophosphatidyl choline (LPC) to Lysophosphatidic acid (LPA) via its Lysophosphodiesterase (lysoPLD) activity. FS-3 is an LPC analogue that is conjugated with both a fluorophore and a quencher. In its native state the quencher interferes with the fluorophore's fluorescence. Once autotaxin cleaves FS-3, the fluorophore becomes liberated from the quencher, resulting in increased fluorescence. Thus increase in fluorescence is a measure of ATX activity. Any compound that inhibits the activity of Autotaxin will show less fluorescence read in presence of FS-3, which could be measured by fluorimetric analysis. See U.S. Pat. No. 7,989,663.
Autotaxin Inhibitor Screening Kits are available from Echelon Biosciences, Logan, Utah, USA [http://echelon-inc.com/, accessed 6 Oct. 2011]. Using the methods of Gierse et al [“A novel autotaxin inhibitor reduces lysophosphatidic acid levels in plasma and the site of inflammation”, Journal of Pharmacology and Experimental Therapeutics, vol 334(1), 310-317 (2010), see in particular page 312 lines 4-14], the potency of the compounds of the invention as inhibitors of human autotaxin enzyme may be measured (as IC50 values).
The FS-3 assay to identify ATX inhibitors was preformed as follows: 3 μl of standard inhibitor (referred to as PF-8380 in Gierse et al above) and test compounds were added to an assay plate. To each assay well, containing test compounds or standard, 24 μl of human Autotaxin enzyme (2 nM) was added. The assay plate was then centrifuged at 1000 rpm for 1 minute and allowed to incubate at 37° C. for 30 minutes. Following the incubation period each plate was read in a fluorescence plate reader (Spectra Max M5: excitation: 494 nm and emission: 520 nm) and IC50 values were derived from inhibition of FS-3 fluorescence (as described above).

Row | IC50 [nM] | Structure (SMILES)
1 | 103 | Cc1ccc(F)c(CNc2ccc(C(=O)Nc3onc(C)c3C)nn2)c1F [Example 9, 6-[(2,6-difluoro-3-methylbenzyl)amino]-N-(3,4-dimethylisoxazol-5-yl)pyridazine-3-carboxamide]
2 | 357 | Cc1noc(NC(=O)c2ccc(NC3CCN(Cc4ccccc4)C3)nn2)c1C (centres unmarked) [Example 12, 6-[(1-benzylpyrrolidin-3-yl)amino]-N-(3,4-dimethyl-isoxazol-5-yl)pyridazine-3-carboxamide]
3 | 89.2 | O=C(NCCCn1ccnc1)c1ccc(NCc2cc(Cl)cc(Cl)c2)nn1 [Example 7, 6-[(3,5-dichlorobenzyl)amino]-N-[3-(1H-imidazol-1-yl)propyl]pyridazine-3-carboxamide]
4 | 114 | Cc1noc(NC(=O)c2ccc(NCc3cccc4ccccc34)nn2)c1C [Example 10, N-(3,4-dimethylisoxazol-5-yl)-6-[(1-naphthylmethyl)-amino]pyridazine-3-carboxamide]
5 | 100 | Cc1noc(NC(=O)c2ccc(NC(C)c3ccc(Cl)cc3)nn2)c1C (centres unmarked) [Example 8, 6-{[1-(4-chlorophenyl)ethyl]amino}-N-(3,4-dimethyl-isoxazol-5-yl)pyridazine-3-carboxamide]
6 | 646 | Cc1onc(-c2ccccc2)c1CNc1ccc(C(=O)NCc2cc(F)cc(F)c2)nn1 [Example 14, N-(3,5-difluorobenzyl)-6-{[(5-methyl-3-phenylisoxazol-4-yl)methyl]amino}pyridazine-3-carboxamide]
7 | 248 | Cc1noc(NC(=O)c2ccc(NCc3cccc(Cl)c3Cl)nn2)c1C [Example 11, 6-[(2,3-dichlorobenzyl)amino]-N-(3,4-dimethyl-isoxazol-5-yl)pyridazine-3-carboxamide]
8 | 507 | Cc1cc(NC(=O)c2ccc(NC(CO)Cc3ccc(Cl)cc3)nn2)n(C)n1 (centres unmarked) [Example 13, 6-{[1-(4-chlorobenzyl)-2-hydroxyethyl]amino}-N-(1,3-dimethyl-1H-pyrazol-5-yl)pyridazine-3-carboxamide]

Further lines, the compound ahead of its results:

Row | Structure (SMILES) | IC50 [nM]
9 | COc1ccc(C(CCO)Nc2ccc(C(=O)NCc3cc(F)cc(F)c3)nn2)cc1 (centres unmarked) [Example 2, N-(3,5-difluorobenzyl)-6-{[3-hydroxy-1-(4-methoxy-phenyl)propyl]amino}pyridazine-3-carboxamide] | 24.9
10 | O=C(NCCN1CCNC1=O)c1ccc(NC2Cc3ccccc3C2)nn1 [Example 6, 6-(2,3-dihydro-1H-inden-2-ylamino)-N-[2-(2-oxoimidazolidin-1-yl)ethyl]pyridazine-3-carboxamide] | 73.8
11 | Cc1noc(NC(=O)c2ccc(NC(CO)Cc3ccc(Cl)cc3)nn2)c1C (centres unmarked) [Example 3, 6-{[1-(4-chlorobenzyl)-2-hydroxyethyl]amino}-N-(3,4-dimethylisoxazol-5-yl)pyridazine-3-carboxamide] | 37.6
12 | CCN(Cc1ccncc1)c1ccc(C(=O)Nc2cc(-c3ccccc3)nn2C)nn1 [Example 4, 6-[ethyl(pyridin-4-ylmethyl)amino]-N-(1-methyl-3-phenyl-1H-pyrazol-5-yl)pyrid azine-3-carboxamide] | 65.2
13 | COc1ccc(C(CCO)Nc2ccc(C(=O)NCc3cc(F)ccc3F)nn2)cc1 (centres unmarked) [Example 1, N-(2,5-difluorobenzyl)-6-{[3-hydroxy-1-(4-methoxy-phenyl)propyl]amino}pyridazine-3-carboxamide] | 14
14 | COc1ccc(C(CCO)Nc2ccc(C(=O)Nc3onc(C)c3C)nn2)cc1 (centres unmarked) [Example 5, N-(3,4-dimethylisoxazol-5-yl)-6-{[3-hydroxy-1-(4-methoxyphenyl)propyl]amino}pyridazine-3-carboxamide] | 69.5
